Assay results taken from patent publication US12172974B2 (Biohaven Pharmaceutical Holding Company Ltd., priority 2012, dated 2024).
“Also recorded” adds a separate entry of the source.

How the values were obtained:
[1] = tested on: Stage III and IV melanoma; conditions: 14 days of treatment; cited from earlier work
[2] = Stability in Simulated Intestinal Fluid (SIF); format: in vitro ADME; conditions: 37° C., 0.01 mg/mL
Protocol: (§1) Stability in Simulated Gastric Fluid (SGF) and Simulated Intestinal Fluid (SIF). Procedure from Baudy et. al. (J. Med. Chem. 2009, 52, 771-778) used. The physiological stability of prodrugs was determined by examining the stability of the compound in SGF, and SIF at 37° C. The compounds were prepared in a 9:1 mixture of the appropriate test component (SGF, SIF) and acetonitrile to a final concentration of 0.01 mg/mL. The samples were thoroughly mixed and maintained at 37° C. Each sample was injected consecutively onto an Agilent 1100 system (Luna C18, 3 μm, 50 mm×3 mm; 1 mL/min; mobile phase of 0.1% trifluoroacetic acid in water/0.1% trifluoroacetic acid in acetonitrile) after a 3 h period. The percent remaining of prodrug was calculated by comparing the area of prodrug compound versus riluzole generated. The identities of the parent compounds and conversion products were confirmed by LC/MS.

[3] = Plasma stability in fresh mouse plasma; format: in vitro ADME; conditions: 1 uM, 37° C.
Protocol: (§2) Plasma Stability: Assessment of plasma stability was carried out by individual incubations of drug candidates in fresh mouse or human control plasma at a concentration of 1 uM for 1 hour at 37° C. After which, the samples were de-proteinized by addition of 2 volumes of acetonitrile containing 0.1% formic acid and internal standard, vortex mixed for 2 minutes and centrifuged at 4000 rpm for 10 minutes to pellet precipitated protein. The resulting supernatant containing the drug candidates was diluted 5-fold with water containing 0.1% formic acid and submitted to LC-MS/MS analysis. All determinations were done in triplicate. […]
(§3) LC-MS/MS Analysis: An aliquot from each incubation was analyzed by LC-MS/MS with SRM detection in the positive ionization mode using an ABSciex API 5500 QTrap Mass Spectrometer interfaced via the ABSciex Turbo V IonSpray source (ESI) to an Eksigent ExpressHT LC system. […] A fast gradient, from 15 to 85% organic in 2.5 minutes, with run time of 5.0 minutes, and flow rate of 50 ul/min was utilized. Peak areas were integrated using MultiQuant v2.0 software from ABSciex.

[4] = Metabolic stability in pooled mouse liver microsomes; format: in vitro ADME; conditions: mouse liver microsomes 0.5 mg/mL, 1 uM, 37° C., NADPH
Protocol: (§4) Metabolic Stability: In vitro metabolic stability was determined in pooled mouse or human liver microsomes (BD Gentest) at a protein concentration of 0.5 mg/mL in reaction buffer (100 mM KH2PO4, pH 7.4 and 12 mM MgCl2). Each drug candidate was added to a final concentration of 1 uM. This mixture was pre-warmed to 37° C. for 10 minutes prior to starting the reaction with the addition of β-Nicotinamide adenine dinucleotide 2′-phosphate reduced (NADPH) to a final concentration of 1 mM. A parallel incubation lacking NADPH served as the control. After incubation for 30 min at 37° C., the reactions were quenched by the addition of acetonitrile containing 0.1% formic acid and internal standard, vortex mixed for 2 minutes and centrifuged at 4000 rpm for 10 minutes to pellet the precipitated protein. The resulting supernatant containing the drug candidate and its potential metabolites was diluted 5-fold with water containing 0.1% formic acid and submitted to LC-MS/MS analysis. […]
as §3

[5] = Stability in Simulated Gastric Fluid (SGF); format: in vitro ADME; conditions: 37° C., 0.01 mg/mL
Protocol: as §1

[6] = Metabolic stability in pooled human liver microsomes; format: in vitro ADME; conditions: human liver microsomes 0.5 mg/mL, 1 uM, 37° C., NADPH
Protocol: as §4, §3

[7] = Plasma stability in fresh human plasma; format: in vitro ADME; conditions: 1 uM, 37° C.
Protocol: as §2, §3

SMILES | SIF (3 hours): percent of prodrug metabolized to riluzole [2] | Plasma Stability mouse (1 hour): percent of prodrug metabolized to riluzole [3] | Metabolic Stability mouse (30 minutes): percent of prodrug metabolized to riluzole [4] | SGF (3 hours): percent of prodrug metabolized to riluzole [5] | Metabolic Stability human (30 minutes): percent of prodrug metabolized to riluzole [6] | Plasma Stability Human (1 hour): percent of prodrug metabolized to riluzole [7] | patients with clinical or radiologic evidence of tumor response [1]
Nc1nc2ccc(OC(F)(F)F)cc2s1 [riluzole, 6-(trifluoromethoxy)-1,3-benzothiazol-2-amine] |  |  |  |  |  |  | four of twelve; also recorded: four of 12
N[C@H](Cc1ccccc1)C(=O)Nc1nc2ccc(OC(F)(F)F)cc2s1 [Cpd 4, (R)-2-Amino-3-phenyl-N-(6-trifluoromethoxy-benzothiazol-2-yl)-propionamide] | 0% | 47% | 12% | 3% | 18% | 6% | 
N[C@@H](COCc1ccccc1)C(=O)Nc1nc2ccc(OC(F)(F)F)cc2s1 [Cpd 10, (S)-2-Amino-3-benzyloxy-N-(6-trifluoromethoxy-benzothiazol-2-yl)-propionamide] | 0% | 52% | 0% | 0% | 15% | 9% | 
C[C@@H](N)C(=O)Nc1nc2ccc(OC(F)(F)F)cc2s1 [Cpd 2, (R)-2-Amino-N-(6-trifluoromethoxy-benzothiazol-2-yl)-propionamide] | 50% | 36% | 10% | 0% | 4% | 15% | 
C[C@H](N)C(=O)Nc1nc2ccc(OC(F)(F)F)cc2s1 [Cpd 7, (S)-2-Amino-N-(6-trifluoromethoxy-benzothiazol-2-yl)-propionamide] | 50% | 28% | 1% | 0% | 0% | 10% | 

More lines, main results first:

SIF (3 hours): percent of prodrug metabolized to riluzole [2] | Plasma Stability mouse (1 hour): percent of prodrug metabolized to riluzole [3] | Metabolic Stability mouse (30 minutes): percent of prodrug metabolized to riluzole [4] | SGF (3 hours): percent of prodrug metabolized to riluzole [5] | Metabolic Stability human (30 minutes): percent of prodrug metabolized to riluzole [6] | Plasma Stability Human (1 hour): percent of prodrug metabolized to riluzole [7] | SMILES | patients with clinical or radiologic evidence of tumor response [1]
0% | 0% | 78% | 0% | 0% | 0% | CNCCCCC(=O)Nc1nc2ccc(OC(F)(F)F)cc2s1 [Cpd 25, 5-Methylamino-pentanoic acid (6-trifluoromethoxy-benzothiazol-2-yl)-amide] | 
0% | 0% | 15% | 0% | 34% | 0% | CCCOC(=O)Nc1nc2ccc(OC(F)(F)F)cc2s1 [Cpd 14, (6-Trifluoromethoxy-benzothiazol-2-yl)-carbamic acid propyl ester] | 
0% | 0% | 70% | 0% | 0% | 16% | O=C(O)CCC(=O)Nc1nc2ccc(OC(F)(F)F)cc2s1 [Cpd 20, N-(6-Trifluoromethoxy-benzothiazol-2-yl)-succinamic acid] | 
0% | 99% | 77% | 3% | 34% | 25% | COC(=O)CCC(=O)Nc1nc2ccc(OC(F)(F)F)cc2s1 [Cpd 21, N-(6-Trifluoromethoxy-benzothiazol-2-yl)-succinamic acid methyl ester] | 
0% | 0% | 23% | 5% | 14% | 0% | CC(C)COC(=O)Nc1nc2ccc(OC(F)(F)F)cc2s1 [Cpd 16, (6-Trifluoromethoxy-benzothiazol-2-yl)-carbamic acid isobutyl ester] | 
